In a melting point compilation (Tetko et al.; mined from patent text by program, amines drawn as free bases though some values may be those of a salt):

melting point [°C]	SMILES
99 to 100	Cc1c(OCC(F)(F)F)ccnc1CS(=O)c1nc2cc(N3CCCCC3)c(F)cc2[nH]1 (stereo unspecified)
162 to 164	Nc1ccc(OC2CCN(C(=O)OCc3ccccc3)C2)cc1CS(=O)(=O)c1cccc2ccccc12 (stereo unspecified)
137 to 141	Cc1cccc(COc2cccc(OCc3ccc4cc(F)cc(F)c4n3)c2)c1OCC(=O)O
31 to 32	O=C(CCCCC1CCSS1)N1CCSCC1 (stereo unspecified)
136 to 137	CC(C)C(C)CCC(C)C1CCC2C3CCC4CCCCC4(C)C3CCC12C (stereo unspecified)
109 to 110	CCOC(=O)c1ccc(NCCCCCCOc2ccc3ccccc3c2)cc1
80 to 82	FC(F)(c1ccccc1)C(F)(F)c1ccc(Br)cc1
185 to 187	COc1c(C=CC(=O)c2ccc(O)cc2)ccc(O)c1C
160	O=C(c1ccccc1)n1c2c(c3ccccc31)CC(C(=O)O)(C(=O)O)CC2
229	CC1(c2cc(/C=C/c3ccc(C(=O)O)cc3)ccc2O)CCCCC1
150 to 152	O=c1c2c(nc3c(OCc4ccccc4)cccn13)CCC2
240 to 242	CN(C)C1C(O)CC2C3CCc4cc(O)ccc4C3CCC21C (stereo unspecified)
81 to 82	CN1C=Cc2ccccc2CC1=O
159	CCCCCCCNC(=O)Nc1ccccc1C(=O)NC1CCNCC1
123	O=C(O)CC1Cc2cccc3cccc1c23 (stereo unspecified)
114 to 115	CCN(CC)Cn1cnc2c1c(=O)n(C)c(=O)n2C
130 to 140	CCCc1nn(C)c2c(=O)[nH]c(-c3cc(C(O)CN4CCNCC4)ccc3OCC)nc12 (stereo unspecified)
144 to 146	Cn1c(C(F)(F)F)cc(=O)n(-c2c(F)cc(Cl)c3nc(C(Br)Br)oc23)c1=O
241 to 243	N#Cc1ncn2c1NCC=C2c1cccc(C(F)(F)F)c1
152 to 153	COc1cccc(CC(=O)O)c1OCCCc1cn(-c2ccc(Br)cn2)nc1C(C)C
80	CCNSc1ccc([N+](=O)[O-])cc1C(Cl)(Cl)Cl
147	N#Cc1ccc(N(c2ccc(N)cc2)n2ccnc2)cc1
167 to 169	CCCOc1ccc(C2=NN(C(=S)Nc3ccc(C(F)(F)F)cc3)CC2NCC(=O)OC)cc1 (stereo unspecified)
225 to 226	Cc1cnc(N2CCC(c3ccc(NS(C)(=O)=O)cc3)CC2)n1C
243 to 245	CCCc1nc(C)c(C=O)n1Cc1ccc(-c2ccccc2C(=O)O)cc1

melting point [°C]	SMILES
265 to 267	COc1cc(O)c(C#N)c2cc(-c3ccc(O)c(F)c3)oc12
203	CN(C1CCC(=O)CC1)S(=O)(=O)c1ccc(Nc2nccc(Nc3ccc(F)cc3)n2)cc1
258 to 259	CC1OC(=O)N2c3ccc(O)cc3CCC12 (stereo unspecified)
68.5 to 69.5	Cc1cc(Cl)c(N)c([N+](=O)[O-])c1
134 to 136	CN(C(=O)c1ccc(Cn2cnc3c(Cl)nc(Cl)nc32)cc1)C1CCCCC1
158 to 159	COC1C(O)C(CO)OC1n1ccc(=O)[nH]c1=O (stereo unspecified)
174 to 175	N#Cc1cccc2c1CC(=O)c1cc(F)ccc1S2
182 to 183	Cc1c(NC(=O)CC(C)(C)C)c(C)c2c(c1-c1cccc(F)c1)OCC2c1ccc(C(C)C)cc1 (stereo unspecified)
154 to 155	O=C(O)CCc1nc(-c2cc3ccccc3o2)no1
205 to 207	COc1ccc(-c2ccc3cc(C4SC(=O)NC4=O)ccc3c2)cc1C12CC3CC(CC(C3)C1)C2 (stereo unspecified)
80 to 81	CCOC(=O)C1CCN(c2nc(-c3ccc(Cl)cc3)c(CCCOc3ccccc3OC)o2)CC1
216	COC(=O)c1cc(C(=O)c2c(C)c(OC)c3ccc(O)cn23)ccc1N
194	O=C(NC1CCCCCCC1)NC1CCCCC1
250 to 251	Cc1ccc(N2C(=O)c3ccccc3NC2c2ccc(=O)[nH]c2)cc1C(F)(F)F (stereo unspecified)
157	O=C(O)C1=CCc2ccccc21
88 to 90	COC(=O)C(C)=CC(C)=Cc1cc([N+](=O)[O-])ccc1Cl
115 to 118	COc1ccc(S(=O)(=O)NC(=N)CCN2CCOC2=O)cc1
59 to 59.5	COc1cc(N)c2nccc(C)c2c1OCCCCc1ccccc1
219 to 221	O=C1c2ccccc2C(Cc2ccnc(F)c2)(Cc2ccnc(F)c2)c2cc(O)ccc21
165 to 166	COc1cc(Nc2nccc(-c3ccc(NCCCN4CCOCC4)nc3)n2)cc(OC)c1OC
220 to 222	Cc1nc(-c2ccc(OC(C)C)c(C#N)c2)sc1C(=O)O
> 275	O=S(=O)(O)c1cccc(NCc2cccc(C(F)(F)F)c2)c1
150 to 155	CCCCCCOc1ccc(-c2ncc(-c3ccc(O)c(F)c3F)cn2)cn1
59 to 61	CCCn1c(CC)ccc1Cc1cccc(NC(N)=O)c1
85 to 90	C=CCC(O)(C(=O)c1ccccc1)c1ccccc1 (stereo unspecified)

melting point [°C]	SMILES
100 to 102	CCSC1=C(c2ccc(O)cc2)C(=O)c2ccc(O)cc21
> 300	COc1cc(C=C(C#N)C(=O)NCCC(C)NC(=O)C(C#N)=Cc2cc(O)c(O)c(OC)c2)cc(O)c1O (stereo unspecified)
113 to 115	COCCNc1c([N+](=O)[O-])cnc2ccccc12
107	CCOC(=O)c1cc2sc(C3CCC(c4c(F)cccc4F)=N3)cc2s1 (stereo unspecified)
233 to 234	Cc1cc2oc(S(N)(=O)=O)cc2cn1
139 to 140	CC1Nc2ccc(-c3cccc(F)c3)cc2C(C)(C)O1 (stereo unspecified)
200 to 202	COc1cn(-c2cc3c(cc2F)OC(F)(F)O3)nc(-c2ccnn2-c2ccccc2)c1=O
185 to 186	CCCCOc1c(CNC(=O)OC(C)(C)C)n(CC(C)C)c(=O)c2ccc(O)cc12
128 to 130	CCCCOC(=O)c1cc(Oc2ccc3c(C(=O)Nc4cccc(C(F)(F)F)c4)cccc3c2)ccn1
149 to 160	CS(=O)(=O)N1Cc2nc3c(N)nc4c(c3n2C(CCCNC(=O)N2CCOCC2)C1)CCCC4 (stereo unspecified)
107 to 108	CN(Cc1ccccc1)C(=O)Nc1cc(C(C)(C)C)on1
106	O=[N+]([O-])c1ccc(NCc2ccccc2)c([N+](=O)[O-])c1
120 to 122	COc1ccc(-c2cc3cc(OC)cc(C(O)C(F)(F)F)c3o2)cc1 (stereo unspecified)
108 to 111	CC(C)(C)OC(=O)NCCNC(=O)c1ncsc1Br
276 to 277	Cc1ccc(N2C(=O)C(O)=C(C(=O)c3ccc(C(C)C)cc3)C2c2ccc(OC(C)(C)C)cc2)nn1 (stereo unspecified)
189	Nc1cc(=O)n(Cc2ccc(Cl)cc2Cl)[nH]1
111 to 113	COc1c(C)c(C)c(OC)c(CCCOc2ccc(CC3SC(=O)NC3=O)cc2)c1C (stereo unspecified)
217 to 219	Cc1cc2c(cc1Cl)N(C)C(=O)C2(NC(=O)CN1CCN(C)CC1)c1ccc(Cl)cc1 (stereo unspecified)
368	CC(C)(C)CC(=O)Nc1cc(NC(=O)C(C)(C)C)cc(NC(=O)C(C)(C)C)c1
136 to 139	OCc1cc(N2CCCC2)ncn1
63 to 65	CCCCCCCCCCCCCCC(=O)C(=O)N[C@@H](CCCC)C(=O)NCC(=O)OCC
166 to 168	COC(=O)NC[C@H]1CN(c2ccc3c(c2)CCCc2cnoc2-3)C(=O)O1
201 to 202	CC(C)n1c(CC[C@@H]2C[C@H](CC(=O)OC(C)(C)C)OC(C)(C)O2)c(-c2ccc(F)cc2)c(-c2ccccc2)c1C(N)=O
235 to 237	CCn1ncc2c(NCC3CCCCC3)c3cc(OC)ccc3nc21
168 to 170	COc1ncnc(OC)c1[N+](=O)[O-]

melting point [°C]	SMILES
94 to 96	O=C(Oc1ccccc1C(=O)NCCO[N+](=O)[O-])c1cccnc1
229	c1ccc2c(c1)CCc1c-2n[nH]c1-c1ccncc1
110 to 112	COc1ccc([C@H]2SC=C(c3ccccc3)N(CCN(C)C)C(=O)[C@H]2O)cc1
250 to 252	CC(=O)Oc1c(C=C(C#N)C#N)n(C(C)=O)c2ccccc12
159 to 161	Nc1nc2ccccc2c2c1ncn2CCOCc1ccncc1
219	O=c1c2ccccc2ccn2ccnc12
321 to 323	Cn1nc(-c2cnc3[nH]cc(C(=O)NC4CCCCC4)c3n2)c2ccc(Cl)cc21
113 to 116	CCOC(=O)c1ccc2c(c1)C=C(n1ccnc1)CC2
152 to 153	CCCCc1nc2cccc(CO)c2n1Cc1ccc(-c2ccccc2-c2nnn[nH]2)cc1
208 to 209	COC(=O)NC1=NC(c2cccc3ccccc23)CN1 (stereo unspecified)
265 to 269	CN1CCC(Oc2cc3c(cc2F)c(=O)c(C(=O)O)cn3C2CC2)CC1
162 to 164	O=c1oc(-c2ccccc2)cc(O)c1SCc1ccc2c(c1)OCO2
160 to 163	O=C(NCc1ccc(Cl)cc1)c1cn(CCCN2CCCCC2)c2ccc(C#CCO)cc2c1=O
104 to 105	CCCCCc1ccc(-c2ncc(O)cn2)c(F)c1F
60.1	CC#CCOc1cc(Oc2cccc(F)c2)ncn1
> 250	CC(C)n1nc(-c2nc(C(N)=S)c(N)nc2-c2ccccc2)ccc1=O
231 to 233	CCC(NC(=O)OC)c1ccc(Cl)c2nc3n(c12)CCCN3c1c(Cl)cc(Cl)cc1Cl (stereo unspecified)
209 to 212	O=C1COc2cc(NC(=O)C(=O)N3CCC(Cc4ccc(F)cc4)CC3)ccc2N1
172 to 173	O=C(NCc1cccc(C(F)(F)F)c1)c1cncc2c1cnn2-c1ccc(F)cc1
226 to 233	COc1cc(C(CCC(C(=O)O)c2cc(OC)c(OC)c(OC)c2)C(=O)O)cc(OC)c1OC (stereo unspecified)
131 to 133	O=c1[nH]c2c(F)cccc2o1
248 to 250	CN1C(=O)CC[C@]2(C)c3ccc(-c4ccc(NC(=O)C(C)(C)C)nc4)cc3CC[C@@H]12

SMILES	melting point [°C]
CCCCc1ccc(COC(=O)NC2CN3CCC2CC3)cc1 (stereo unspecified)	174 to 175
Cc1ccc2[nH]c(=O)n(C3CCNCC3)c2c1	> 300
CC(C)(C)n1ncc(C(=O)O)c1Cl	132 to 134
Cc1cc(NC(=O)c2cc3cc(F)ccc3n2Cc2ccncc2)cnc1N(C)C	282 to 283
